Assay results from the supplement of paper PMC6045584.
± gives the standard deviation of the averaged measurements.

What was measured:
MDV3100 [1] = compound: T1, CNC(=O)c1ccc(N2C(=S)N(c3ccc(C#N)c(C(F)(F)F)c3)C(=O)C2(C)C)cc1F [MDV3100]; experiment: surviving fraction relative to DMSO-only wells; higher = less growth inhibition; settings: exposure time: 5 days
In short: (§1)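 After seeding at 250–500 cells per well in 384-well plates and a 24-hour wait, log-phase tumour cell lines were exposed without interruption for five days to inhibitors at 0.5, 1, 5, 10, 50, 100, 500 and 1000 nM. CellTiter-Glo luminescence was recorded after 10 minutes at room temperature. Viability is reported as surviving fraction, the luminescence normalised to the median of DMSO-only wells.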

BI-2536 [2] = compound: T2, CC[C@@H]1C(=O)N(C)c2cnc(Nc3ccc(C(=O)NC4CCN(C)CC4)cc3OC)nc2N1C1CCCC1 [BI-2536]; experiment: as above; settings: exposure time: 5 days
In short: as §1

[3] = compound: Cn1cc(C2=Nc3cc(NC(=O)C(N)C4CCCCC4)cc4c3C2=CNNC4=O)cn1; experiment: as above; settings: exposure time: 5 days
In short: as §1

AFATINIB [4] = compound: T3, CN(C)C/C=C/C(=O)Nc1cc2c(Nc3ccc(F)c(Cl)c3)ncnc2cc1O[C@H]1CCOC1 [AFATINIB]; experiment: as above; settings: exposure time: 5 days
In short: as §1

SNX-5422 [5] = compound: T4, CC1(C)CC(=O)c2c(C(F)(F)F)nn(-c3ccc(C(N)=O)c(N[C@H]4CC[C@H](OC(=O)CN)CC4)c3)c2C1 [SNX-5422]; experiment: as above; settings: exposure time: 5 days
In short: as §1

TIOGUANINE [6] = compound: T5, Nc1nc2[nH]cnc2c(=S)[nH]1 [TIOGUANINE]; experiment: as above; settings: exposure time: 5 days
In short: as §1

SAPACITABINE [7] = compound: T6, CCCCCCCCCCCCCCCC(=O)Nc1ccn([C@@H]2O[C@H](CO)[C@@H](O)[C@@H]2C#N)c(=O)n1 [SAPACITABINE]; experiment: as above; settings: exposure time: 5 days
In short: as §1

CANERTINIB [8] = compound: T7, C=CC(=O)Nc1cc2c(Nc3ccc(F)c(Cl)c3)ncnc2cc1OCCCN1CCOCC1 [CANERTINIB]; experiment: as above; settings: exposure time: 5 days
In short: as §1

MDV3100 [9] = compound: T1, MDV3100; experiment: area under dose-response curve of surviving fraction (unscaled, Aref=0) (surviving fraction x log10(nM)); higher = more resistant; settings: exposure time: 5 days; dose range 0.5-1000 nM
In short: (§2)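 Each tumour cell line was screened three times in 384-well plates, receiving eight inhibitor concentrations from 0.5 to 1000 nM for five days. CellTiter-Glo luminescence gave viability, normalised to DMSO-only wells. Using the drc R package, surviving fractions were fitted with 3-parameter logistic dose-response curves, and the unscaled activity area over log10 dose (Aref = 0) was taken as the area under the curve.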

BI-2536 [10] = compound: T2, BI-2536; experiment: as above; settings: exposure time: 5 days; dose range 0.5-1000 nM
In short: as §2

[11] = compound: Cn1cc(C2=Nc3cc(NC(=O)C(N)C4CCCCC4)cc4c3C2=CNNC4=O)cn1; experiment: as above; settings: exposure time: 5 days; dose range 0.5-1000 nM
In short: as §2

AFATINIB [12] = compound: T3, AFATINIB; experiment: as above; settings: exposure time: 5 days; dose range 0.5-1000 nM
In short: as §2

SNX-5422 [13] = compound: T4, SNX-5422; experiment: as above; settings: exposure time: 5 days; dose range 0.5-1000 nM
In short: as §2

TIOGUANINE [14] = compound: T5, TIOGUANINE; experiment: as above; settings: exposure time: 5 days; dose range 0.5-1000 nM
In short: as §2

SAPACITABINE [15] = compound: T6, SAPACITABINE; experiment: as above; settings: exposure time: 5 days; dose range 0.5-1000 nM
In short: as §2

CANERTINIB [16] = compound: T7, CANERTINIB; experiment: as above; settings: exposure time: 5 days; dose range 0.5-1000 nM
In short: as §2

SG32 HEADNECK
surviving fraction (MDV3100 [1]; 0.5 nM): 1.21 ± 0.56
surviving fraction (MDV3100 [1]; 1 nM): 0.976 ± 0.13
surviving fraction (MDV3100 [1]; 5 nM): 0.988 ± 0.033
surviving fraction (MDV3100 [1]; 10 nM): 0.794 ± 0.073
surviving fraction (MDV3100 [1]; 50 nM): 1.16 ± 0.17
surviving fraction (MDV3100 [1]; 100 nM): 1 ± 0.3
surviving fraction (MDV3100 [1]; 500 nM): 1.01 ± 0.044
surviving fraction (MDV3100 [1]; 1000 nM): 1.09 ± 0.26
surviving fraction (BI-2536 [2]; 0.5 nM): 1.22 ± 0.12
surviving fraction (BI-2536 [2]; 1 nM): 1.07 ± 0.18
surviving fraction (BI-2536 [2]; 5 nM): 0.32 ± 0.017
surviving fraction (BI-2536 [2]; 10 nM): 0.296 ± 0.022
surviving fraction (BI-2536 [2]; 50 nM): 0.292 ± 0.0097
surviving fraction (BI-2536 [2]; 100 nM): 0.294 ± 0.043
surviving fraction (BI-2536 [2]; 500 nM): 0.204 ± 0.014
surviving fraction (BI-2536 [2]; 1000 nM): 0.16 ± 0.02
surviving fraction ([3]; 0.5 nM): 1.12 ± 0.29
surviving fraction ([3]; 1 nM): 1.13 ± 0.1
surviving fraction ([3]; 5 nM): 1.14 ± 0.091
surviving fraction ([3]; 10 nM): 1.12 ± 0.14
surviving fraction ([3]; 50 nM): 0.881 ± 0.065
surviving fraction ([3]; 100 nM): 0.774 ± 0.19
surviving fraction ([3]; 500 nM): 0.273 ± 0.099
surviving fraction ([3]; 1000 nM): 0.222 ± 0.087
surviving fraction (AFATINIB [4]; 0.5 nM): 1.13 ± 0.14
surviving fraction (AFATINIB [4]; 1 nM): 1.09 ± 0.082
surviving fraction (AFATINIB [4]; 5 nM): 1.13 ± 0.2
surviving fraction (AFATINIB [4]; 10 nM): 1.01 ± 0.078
surviving fraction (AFATINIB [4]; 50 nM): 0.895 ± 0.11
surviving fraction (AFATINIB [4]; 100 nM): 0.864 ± 0.07
surviving fraction (AFATINIB [4]; 500 nM): 0.637 ± 0.081
surviving fraction (AFATINIB [4]; 1000 nM): 0.348 ± 0.09
surviving fraction (SNX-5422 [5]; 0.5 nM): 1.35 ± 0.39
surviving fraction (SNX-5422 [5]; 1 nM): 1.17 ± 0.21
surviving fraction (SNX-5422 [5]; 5 nM): 1.08 ± 0.18
surviving fraction (SNX-5422 [5]; 10 nM): 1.29 ± 0.14
surviving fraction (SNX-5422 [5]; 50 nM): 0.257 ± 0.035
surviving fraction (SNX-5422 [5]; 100 nM): 0.14 ± 0.011
surviving fraction (SNX-5422 [5]; 500 nM): 0.0353 ± 0.0084
surviving fraction (SNX-5422 [5]; 1000 nM): 0.0353 ± 0.004
surviving fraction (TIOGUANINE [6]; 0.5 nM): 0.916 ± 0.077
surviving fraction (TIOGUANINE [6]; 1 nM): 1.04 ± 0.044
surviving fraction (TIOGUANINE [6]; 5 nM): 1.18 ± 0.22
surviving fraction (TIOGUANINE [6]; 10 nM): 1.2 ± 0.074
surviving fraction (TIOGUANINE [6]; 50 nM): 1.2 ± 0.15
surviving fraction (TIOGUANINE [6]; 100 nM): 0.881 ± 0.05
surviving fraction (TIOGUANINE [6]; 500 nM): 0.962 ± 0.22
surviving fraction (TIOGUANINE [6]; 1000 nM): 1.17 ± 0.057
surviving fraction (SAPACITABINE [7]; 0.5 nM): 0.715 ± 0.068
surviving fraction (SAPACITABINE [7]; 1 nM): 0.614 ± 0.17
surviving fraction (SAPACITABINE [7]; 5 nM): 0.907 ± 0.12
surviving fraction (SAPACITABINE [7]; 10 nM): 0.429 ± 0.12
surviving fraction (SAPACITABINE [7]; 50 nM): 0.707 ± 0.11
surviving fraction (SAPACITABINE [7]; 100 nM): 0.487 ± 0.065
surviving fraction (SAPACITABINE [7]; 500 nM): 0.447 ± 0.082
surviving fraction (SAPACITABINE [7]; 1000 nM): 0.289 ± 0.078
surviving fraction (CANERTINIB [8]; 0.5 nM): 0.647 ± 0.084
surviving fraction (CANERTINIB [8]; 1 nM): 0.826 ± 0.11
surviving fraction (CANERTINIB [8]; 5 nM): 0.778 ± 0.12
surviving fraction (CANERTINIB [8]; 10 nM): 0.839 ± 0.094
surviving fraction (CANERTINIB [8]; 50 nM): 0.786 ± 0.15
surviving fraction (CANERTINIB [8]; 100 nM): 0.703 ± 0.14
surviving fraction (CANERTINIB [8]; 500 nM): 0.577 ± 0.09
surviving fraction (CANERTINIB [8]; 1000 nM): 0.501 ± 0.031
area under dose-response curve (MDV3100 [9]): 3.4
area under dose-response curve (BI-2536 [10]): 1.44
area under dose-response curve [11]: 2.65
area under dose-response curve (AFATINIB [12]): 2.94
area under dose-response curve (SNX-5422 [13]): 1.98
area under dose-response curve (TIOGUANINE [14]): 3.59
area under dose-response curve (SAPACITABINE [15]): 1.91
area under dose-response curve (CANERTINIB [16]): 2.35
